Source: patent US20240228986A1, “ENGINEERED CELLS, ENZYMES, AND METHODS FOR PRODUCING CANNABINOIDS” (priority 2021, published 2024)

System: MPT21 (SEQ ID NO: 22; chimera of MPT1 and MPT4) as fusion GPS1.1-F11-MPT21 (SEQ ID NO: 25), expressed in Yarrowia
Assay: In vitro activity assay with microsomes of GPS1.1-F11-MPT21
Assay type: biochemical
Settings: microsomes from Yarrowia sCL-SE-0128 + pCL-SE-0664; varying concentrations of OA and DVA; enzyme not purified to homogeneity
Protocol: Yarrowia cells sCL-SE-0128 expressing the fusion of GPS1.1 with MPT4 (pCL-SE-0406) and MPT21 (pCL-SE-0664) were grown at 30 mL culture at 30 C for 2 days in YNB with 20% glucose. The cells were collected by centrifugation, washed with homogenization buffer (MAK340-1KT Sigma Aldrich) and were resuspended in 2 mL of homogenization buffer. The suspended cells were transferred to 5 mL tubes containing 1 mL of glass beads and were homogenized by shaking for 5 min at max speed in a shaker (Retsch MM400). The lysed cells were transferred to new tubes and microsomes were prepared as described in the kit (MAK340-1KT). Activity assays were performed using microsomes from both enzymes and varying concentrations of OA and DVA.

CCCc1cc(O)cc(O)c1C(=O)O [DVA, divarinic acid]
Km: 62.2 µM

CCCCCc1cc(O)cc(O)c1C(=O)O [OA, olivetolic acid]
Km: 20.9 µM
